Data on ten compounds can be found in ChEMBL document CHEMBL1201862, “PubChem BioAssay data set” (2004).

Among the test systems are HOP-92; HCC 2998; U-251; CAKI-1; TK-10; IGROV-1; SNB-75; NCI-H23; SW-620; SK-MEL-28; K562; SK-MEL-2; ACHN; MOLT-4; SNB-19; LOX IMVI; RPMI-8226; NCI-H460; HOP-62; UO-31.
Holding throughout (test): inhibition of tumour cell growth, NCI panel, 48 h

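Following 48 hours of exposure in 96-well plates, responses at five concentrations were used to interpolate endpoints linearly. GI50: concentration for 50% inhibition of growth.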 The source made the active and inactive calls. No stated cut-off is given here; in the data, active = GI50 up to about 1.1 µM and inactive = higher.

In the case of `c1ccc(/N=C(\N2CCCCC2)N(CCN2CCCCC2)c2ccccc2)cc1`, the GI50 with HOP-92 is 1.44 µM (inactive); in the experiment on HCC 2998, 1.69 µM (inactive); in the experiment with U-251, 1.39 µM (inactive); in the experiment with CAKI-1 it was 3.15 µM (inactive); in the experiment with TK-10, 2.96 µM (inactive); in the experiment with IGROV-1 it was 0.396 µM (active). Besides, the GI50 with SNB-75 was 2.28 µM (inactive); in the experiment on NCI-H23 it was 0.773 µM (active); in the experiment on SW-620 it was 1.8 µM (inactive); in the experiment on SK-MEL-28, 1.99 µM (inactive); in the experiment with K562 it was 0.254 µM (active); with SK-MEL-2 it was 1.76 µM (inactive). Also, the GI50 with ACHN is 1.58 µM (inactive); in the experiment on MOLT-4 it was 0.279 µM (active); in the experiment on SNB-19, 3.78 µM (inactive); with LOX IMVI, 0.622 µM (active); in the experiment on RPMI-8226, 0.192 µM (active); in the experiment on NCI-H460, 0.274 µM (active). The results for the GI50 with HOP-62 and with UO-31 were 1.43 µM (inactive) and 1.68 µM (inactive), respectively.

For `O=C(CCCN1CCC(C(O)c2ccc(F)cc2)CC1)c1ccc(F)cc1` (stereo not given), the GI50 in the experiment with HOP-92 was 20.6 µM (inactive); in the experiment on HCC 2998 it was 41.1 µM (inactive); in the experiment on U-251 it was 55.5 µM (inactive); in the experiment with CAKI-1 it was 53.7 µM (inactive); in the experiment with TK-10 it was 41.4 µM (inactive); in the experiment on IGROV-1, 61.9 µM (inactive). Also, the GI50 was 44.3 µM (inactive) with SNB-75; 66.5 µM (inactive) in the experiment on NCI-H23; 61.8 µM (inactive) with SW-620; 59.3 µM (inactive) with SK-MEL-28; 39.7 µM (inactive) in the experiment on K562; 57.4 µM (inactive) in the experiment with SK-MEL-2. In addition, the GI50 with ACHN is 50.6 µM (inactive); in the experiment on MOLT-4, 54.3 µM (inactive); with SNB-19, 60.7 µM (inactive); in the experiment with LOX IMVI, 50 µM (inactive); in the experiment on RPMI-8226, 66.5 µM (inactive); in the experiment on NCI-H460 it was 57.8 µM (inactive). Also, the GI50 was 62.8 µM (inactive) with HOP-62 and 23.1 µM (inactive) in the experiment with UO-31.

Turning to `COc1ccc2c(c1)OC[C@@H]1c3cc(O)c(OCc4ccccc4)cc3O[C@H]21`, the GI50 is 14.8 µM (inactive) in the experiment on HOP-92; 36.2 µM (inactive) in the experiment with HCC 2998; 23.7 µM (inactive) in the experiment on U-251; 24.1 µM (inactive) in the experiment on CAKI-1; 32.7 µM (inactive) in the experiment on TK-10; 26.5 µM (inactive) in the experiment with IGROV-1. Moreover, the GI50 in the experiment on SNB-75 was 14.2 µM (inactive); in the experiment with NCI-H23, 16.4 µM (inactive); with SW-620 it was 29.6 µM (inactive); in the experiment with SK-MEL-28 it was 32.9 µM (inactive); in the experiment with K562, 31.8 µM (inactive); with SK-MEL-2, 17.3 µM (inactive). Also, the GI50 in the experiment on ACHN is 22.9 µM (inactive); in the experiment on MOLT-4, 29.5 µM (inactive); in the experiment with SNB-19, 46.8 µM (inactive); in the experiment with LOX IMVI, 30 µM (inactive); in the experiment with RPMI-8226 it was 10.2 µM (inactive); in the experiment with NCI-H460 it was 17.3 µM (inactive). Also, the GI50 is 48 µM (inactive) in the experiment on HOP-62 and 20.1 µM (inactive) in the experiment on UO-31.

For `Cc1c2cc[n+](C)cc2c(C)c2c1[nH]c1ccccc12`, the GI50 is 1.56 µM (inactive) with HOP-92; 2.28 µM (inactive) with HCC 2998; 0.421 µM (active) in the experiment with U-251; 2.69 µM (inactive) in the experiment with CAKI-1; 27.2 µM (inactive) in the experiment with TK-10; 3.79 µM (inactive) with IGROV-1. Besides, the GI50 in the experiment on SNB-75 was 0.184 µM (active); in the experiment with NCI-H23, 0.773 µM (active); with SW-620, 0.973 µM (active); with SK-MEL-28 it was 1.62 µM (inactive); in the experiment with K562 it was 3.05 µM (inactive); in the experiment with SK-MEL-2, 1.28 µM (inactive). Moreover, the GI50 in the experiment with ACHN is 12.8 µM (inactive); in the experiment on MOLT-4, 0.861 µM (active); in the experiment on SNB-19, 0.301 µM (active); with LOX IMVI, 6.59 µM (inactive); in the experiment on RPMI-8226, 8.02 µM (inactive); with NCI-H460, 1.89 µM (inactive). Besides, the results for the GI50 with HOP-62 and in the experiment with UO-31 were 0.45 µM (active) and 8.65 µM (inactive), respectively.

Consider `Cn1c(=O)c2nc3sc4c(n3c2n(C)c1=O)C(=O)c1ccccc1C4=O`, for which the GI50 was 16.5 µM (inactive) in the experiment with HOP-92; > 80.2 µM (inactive) in the experiment on HCC 2998; 39 µM (inactive) in the experiment on U-251; > 78.9 µM (inactive) in the experiment on CAKI-1; > 100 µM (inactive) in the experiment with TK-10; > 54.3 µM (inactive) in the experiment on IGROV-1. Besides, the GI50 in the experiment with SNB-75 is 14.7 µM (inactive); with NCI-H23, 57.3 µM (inactive); in the experiment with SW-620, > 66.5 µM (inactive); in the experiment on SK-MEL-28, > 75 µM (inactive); in the experiment on K562, 63.2 µM (inactive); in the experiment with SK-MEL-2, > 55.5 µM (inactive). The GI50 in the experiment on ACHN was > 32.4 µM (inactive); with MOLT-4, 13.5 µM (inactive); with SNB-19 it was > 44.1 µM (inactive); in the experiment with LOX IMVI, > 30.9 µM (inactive); in the experiment on RPMI-8226 it was 38.4 µM (inactive); in the experiment on NCI-H460 it was > 71.1 µM (inactive). Besides, the GI50 in the experiment on HOP-62 is > 38.9 µM (inactive); in the experiment with UO-31 it was > 66.2 µM (inactive).

For the compound `CCCCCCCCCCC(C)CCCCCCC(=O)OCC(COP(=O)([O-])OCC[N+](C)(C)C)OC(=O)CCCCCCC(C)CCCCCCCCCC` (stereo not given), the GI50 in the experiment on HOP-92, in the experiment with HCC 2998, in the experiment with U-251, with CAKI-1, in the experiment with TK-10 and with IGROV-1 was > 100 µM (inactive) in each case. For the same compound, the GI50 in the experiment on SNB-75, with NCI-H23, with SW-620, with SK-MEL-28, with K562 and in the experiment with SK-MEL-2 was > 100 µM (inactive) throughout. The GI50 with ACHN, in the experiment on MOLT-4, with SNB-19, in the experiment with LOX IMVI, with RPMI-8226 and in the experiment on NCI-H460 was > 100 µM (inactive) in each case. The GI50 in the experiment with HOP-62 and in the experiment with UO-31 was > 100 µM (inactive) in each case.

Regarding `CC1(CO)OC(n2cnc3c(N)ncnc32)C(O)C1O` (stereo not given), the GI50 in the experiment with HOP-92, with HCC 2998, with U-251, with CAKI-1, with TK-10 and with IGROV-1 was > 100 µM (inactive) in each case. Moreover, the GI50 with SNB-75 was 87.3 µM (inactive); in the experiment on NCI-H23 it was > 100 µM (inactive); in the experiment with SW-620 it was > 100 µM (inactive); in the experiment with SK-MEL-28 it was > 100 µM (inactive); with K562 it was > 100 µM (inactive); with SK-MEL-2, > 100 µM (inactive). The GI50 in the experiment with ACHN, in the experiment with MOLT-4, with SNB-19, with LOX IMVI, in the experiment with RPMI-8226 and in the experiment with NCI-H460 was > 100 µM (inactive) in each case. Besides, the GI50 with HOP-62 and in the experiment with UO-31 was > 100 µM (inactive) each time.

In the case of `Nn1c(S)nnc1COc1cccc(OCc2nnc(S)n2N)c1`, the GI50 with HOP-92, in the experiment with HCC 2998, with U-251, with CAKI-1, in the experiment on TK-10 and in the experiment on IGROV-1 was > 100 µM (inactive) in each case. The GI50 is > 100 µM (inactive) in the experiment on SNB-75; > 100 µM (inactive) in the experiment on NCI-H23; 40 µM (inactive) in the experiment on SW-620; > 100 µM (inactive) in the experiment with SK-MEL-28; 4.9 µM (inactive) in the experiment on K562; > 100 µM (inactive) in the experiment with SK-MEL-2. The GI50 was > 100 µM (inactive) in the experiment with ACHN; 3.13 µM (inactive) in the experiment with MOLT-4; > 100 µM (inactive) in the experiment with SNB-19; 32.4 µM (inactive) in the experiment on LOX IMVI; 53.6 µM (inactive) in the experiment on RPMI-8226; 29.7 µM (inactive) with NCI-H460. Further, the GI50 with HOP-62 and in the experiment with UO-31 was > 100 µM (inactive) in each case.

Turning to `COc1ccc2nc3cc(Cl)ccc3c(NCCCCCC(=O)NC(COc3ccc4ccc5cccnc5c4n3)COc3ccc4ccc5cccnc5c4n3)c2c1`, the GI50 in the experiment on HOP-92 was 24.4 µM (inactive); with HCC 2998 it was 14.9 µM (inactive); in the experiment on U-251, 13.8 µM (inactive); in the experiment with CAKI-1, 25.3 µM (inactive); in the experiment with TK-10 it was 18.1 µM (inactive); with IGROV-1, 16.3 µM (inactive). Besides, the GI50 is 21 µM (inactive) in the experiment on SNB-75; 21.4 µM (inactive) with NCI-H23; 12 µM (inactive) in the experiment with SW-620; 24.2 µM (inactive) with SK-MEL-28; 13.5 µM (inactive) in the experiment on K562; 25.3 µM (inactive) in the experiment with SK-MEL-2. Further, the GI50 in the experiment with ACHN was 15.5 µM (inactive); in the experiment on MOLT-4, 0.527 µM (active); in the experiment with SNB-19, 45.5 µM (inactive); in the experiment on LOX IMVI it was 21.4 µM (inactive); in the experiment with RPMI-8226, 5.58 µM (inactive); in the experiment on NCI-H460, 2.85 µM (inactive). Moreover, the GI50 in the experiment with HOP-62 is > 100 µM (inactive); with UO-31, 2.79 µM (inactive).

On to `CC1(C)OC2OC(COC(=O)C(c3ccccc3)c3ccccc3)C3OC(C)(C)OC3C2O1` (stereo not given), for which the GI50 in the experiment on HOP-92 was 61.8 µM (inactive); with HCC 2998 it was > 10 µM (inactive); in the experiment with U-251, > 10 µM (inactive); with CAKI-1, > 10 µM (inactive); with TK-10, > 10 µM (inactive); in the experiment on IGROV-1, > 10 µM (inactive). The GI50 in the experiment with SNB-75 was 17.1 µM (inactive); in the experiment on NCI-H23, 20.1 µM (inactive); with SW-620, 6.87 µM (inactive); in the experiment with SK-MEL-28 it was 43.5 µM (inactive); in the experiment on K562, 4.29 µM (inactive); in the experiment on SK-MEL-2, 46.8 µM (inactive). The GI50 with ACHN is 29.7 µM (inactive); in the experiment on MOLT-4 it was 5.02 µM (inactive); with SNB-19 it was 66.7 µM (inactive); with LOX IMVI, 9.68 µM (inactive); with RPMI-8226, 4.5 µM (inactive); in the experiment on NCI-H460, 4.84 µM (inactive). Further, the GI50 in the experiment with HOP-62 is > 10 µM (inactive); with UO-31 it was 35.5 µM (inactive).
